Laboratory results taken from publication PMC2391111 (British Journal of Cancer, 2008).
Entries after “also recorded” stand apart in the source; their conditions may differ. Like-named read-outs stand apart in the source and are kept apart here.

How the values were obtained:
metastatic breast cancer = details: single agent, anthracycline-pretreated metastatic breast cancer ref Jones et al, 2005; cited from earlier work
20S proteasome = 20S proteasome (Homo sapiens, UniProt P28074); test: 20S proteasome inhibition assay in whole blood; type: in vivo, patients
Sequence of 20S proteasome (P28074 60-263): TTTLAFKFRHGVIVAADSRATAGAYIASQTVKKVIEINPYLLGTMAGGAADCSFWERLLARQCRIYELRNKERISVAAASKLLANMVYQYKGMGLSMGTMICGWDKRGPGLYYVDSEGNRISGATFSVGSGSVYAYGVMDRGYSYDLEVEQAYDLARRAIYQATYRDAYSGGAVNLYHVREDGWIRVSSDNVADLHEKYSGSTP
Source text: (§1) In patients participating in pharmacokinetic analysis, blood samples were taken on day 1, cycle 1, to determine the plasma concentration time profile of docetaxel and bortezomib. Samples were collected immediately before docetaxel infusion and bortezomib injection and at prespecified intervals on day 1. Samples were also taken for bortezomib pharmacokinetic analysis on day 11 of cycle 1. Whole-blood samples were taken for pharmacodynamic analysis using 20S proteasome inhibition assay ([Lightcap et al, 2000]) immediately before and 1 h after bortezomib dosing on days 1 and 11 of cycles 1 and 2, and on days 2 and 12 of cycle 1, in a subset of patients participating in pharmacokinetic analysis.

[1] = Plasma pharmacokinetics of bortezomib and docetaxel given in combination; type: in vivo, patients; details: for AUC(0-t) / AUC(0-inf) / clearance / half-life / Vd / Cmax: human, plasma, intravenous; for AUC(0-t): read-out: AUC0–t, mean (%CV); for AUC(0-inf): read-out: AUC0–∞∞, mean (%CV); for clearance: read-out: CL, mean (%CV) (converted); for Cmax: read-out: Cmax, mean (%CV)
Source text: as §1

[2] = test system: alpha-1 acid glycoprotein (AAG), albumin, and lipoproteins; set-up: method as in Aventis Pharmaceuticals Inc, 2005; details: in vitro ref Aventis Pharmaceuticals Inc, 2005; cited from earlier work
[3] = test system: HER2-positive breast cancer cell lines; set-up: method as in Cardoso et al, 2006; details: HER2-positive cells, four cell lines ref Cardoso et al, 2006; cited from earlier work
[4] = 75 mg, docetaxel 75 mg m^−2 (n=7), day 1, with bortezomib
[5] = 100 mg, docetaxel 100 mg m^−2 (n=6), day 1, with bortezomib
[6] = 1 mg, bortezomib 1.0 mg m^−2 (n=5), day 1, with docetaxel
[7] = 1 mg, bortezomib 1.0 mg m^−2 (n=5), day 11
[8] = 1.3 mg, bortezomib 1.3 mg m^−2 (n=3), day 1, with docetaxel
[9] = 1.3 mg, bortezomib 1.3 mg m^−2 (n=3), day 11
[10] = 1.5 mg, bortezomib 1.5 mg m^−2 (n=6), day 11
[11] = 1.5 mg, bortezomib 1.5 mg m^−2 (n=8), day 1, with docetaxel

In the case of `CC(=O)O[C@H]1C(=O)[C@@]2(C)[C@H]([C@H](OC(=O)c3ccccc3)[C@]3(O)C[C@H](OC(=O)[C@H](O)[C@@H](NC(=O)c4ccccc4)c4ccccc4)C(C)=C1C3(C)C)[C@]1(OC(C)=O)CO[C@@H]1C[C@@H]2O` [paclitaxel], the “Median TTP” value (metastatic breast cancer) is listed as 3.6 months and the Response rate (metastatic breast cancer) is listed as 25%.

For `CC(=O)O[C@@]12CO[C@@H]1C[C@H](O)[C@@]1(C)C(=O)[C@H](O)C3=C(C)[C@@H](OC(=O)[C@H](O)[C@@H](NC(=O)OC(C)(C)C)c4ccccc4)C[C@@](O)([C@@H](OC(=O)c4ccccc4)[C@H]21)C3(C)C` [Docetaxel], the “Median TTP” value (metastatic breast cancer) is given as 5.7 months, the Response rate (metastatic breast cancer) is given as 32% and the “Effect of coadministered docetaxel on 20S proteasome inhibition by bortezomib” value (20S proteasome; whole blood) is given as “appeared not to affect; also recorded: did not appear to affect”. It also gave an AUC(0-t) [1, 4] of 1700 ng·h/mL, an AUC(0-inf) [1, 4] of 1850 ng·h/mL and a clearance [1, 4] of 1420 mL/min. For the same molecule, the half-life ([1]; 75 mg, docetaxel 75 mg m^−2 (n=7), day 1, with bortezomib, read-out: T½,z, mean (%CV) (converted)) was 10.4 h, the Vd ([1]; 75 mg, docetaxel 75 mg m^−2 (n=7), day 1, with bortezomib, read-out: Vss, mean (%CV)) was 180 L and the Vd ([1]; 75 mg, docetaxel 75 mg m^−2 (n=7), day 1, with bortezomib, read-out: Vz, mean (%CV)) was 920 L. The half-life ([1]; 75 mg, docetaxel 75 mg m^−2, day 1, patients with measurable plasma concentrations at 24 h post-dose (n=3), read-out: T½,z 24-h, mean (converted)) was 17.6 h, the AUC(0-t) [1, 5] was 2550 ng·h/mL and the AUC(0-inf) [1, 5] was 2730 ng·h/mL. For the same molecule, the clearance [1, 5] was 1160 mL/min, the half-life ([1]; 100 mg, docetaxel 100 mg m^−2 (n=6), day 1, with bortezomib, read-out: T½,z, mean (%CV) (converted)) was 15 h and the Vd ([1]; 100 mg, docetaxel 100 mg m^−2 (n=6), day 1, with bortezomib, read-out: Vss, mean (%CV)) was 372 L. The Vd ([1]; 100 mg, docetaxel 100 mg m^−2 (n=6), day 1, with bortezomib, read-out: Vz, mean (%CV)) was 1510 L, the half-life ([1]; 100 mg, docetaxel 100 mg m^−2, day 1, patients with measurable plasma concentrations at 24 h post-dose (n=5), read-out: T½,z 24-h, mean (converted)) was 17.4 h and the Cmax ([1]; docetaxel 75 mg m^−2 (n=7), day 1, with bortezomib) was 1620 ng/mL. The Cmax ([1]; docetaxel 100 mg m^−2 (n=6), day 1, with bortezomib) was 2520 ng/mL and the Plasma protein binding [2] was “extensively plasma protein-bound”.

For `CC(C)C[C@H](NC(=O)[C@H](Cc1ccccc1)NC(=O)c1cnccn1)B(O)O` [Bortezomib], the “Percent 20S proteasome inhibition, cycle 2 versus cycle 1” value (20S proteasome; all dose groups) was “greater in cycle 2 than cycle 1”, the “Inhibition of 20S proteasome activity” value (20S proteasome; whole blood, 1 h post-dose) was 46.14–88.80% and the “Inhibition of 20S proteasome activity” value (20S proteasome; whole blood, immediately prior to the dose on day 11) was 10.93–51.18%. For the same molecule, the “C0, mean (%CV)” value ([1]; bortezomib 1.0 mg m^−2 (n=5), day 1, with docetaxel) was 208 (34) ng ml^−1, the “C0, mean (%CV)” value ([1]; bortezomib 1.0 mg m^−2 (n=5), day 11) was 552 (148) ng ml^−1 and the “C0, mean (%CV)” value ([1]; bortezomib 1.3 mg m^−2 (n=3), day 1, with docetaxel) was 137 (54) ng ml^−1. The “C0, mean (%CV)” value ([1]; bortezomib 1.3 mg m^−2 (n=3), day 11) was 237 (59) ng ml^−1, the “C0, mean (%CV)” value ([1]; bortezomib 1.5 mg m^−2 (n=6), day 11) was 153 (41) ng ml^−1 and the “C0, mean (%CV)” value ([1]; bortezomib 1.5 mg m^−2 (n=8), day 1, with docetaxel) was 268 (71) ng ml^−1. For the same molecule, the AUC(0-t) [1, 6] was 43 ng·h/mL, the AUC(0-inf) [1, 6] was 54.6 ng·h/mL and the clearance [1, 6] was 562 mL/min. It also gave a half-life ([1]; 1 mg, bortezomib 1.0 mg m^−2 (n=5), day 1, with docetaxel, read-out: T½,z, mean (%CV) (converted)) of 9.15 h, a Vd ([1]; 1 mg, bortezomib 1.0 mg m^−2 (n=5), day 1, with docetaxel, read-out: Vss, mean (%CV)) of 222 L and a Vd ([1]; 1 mg, bortezomib 1.0 mg m^−2 (n=5), day 1, with docetaxel, read-out: Vz, mean (%CV)) of 408 L. For the same molecule, the AUC(0-t) [1, 7] was 112 ng·h/mL, the AUC(0-inf) [1, 7] was 133 ng·h/mL and the clearance [1, 7] was 225 mL/min. For the same molecule, the half-life ([1]; 1 mg, bortezomib 1.0 mg m^−2 (n=5), day 11, read-out: T½,z, mean (%CV) (converted)) was 12.2 h, the Vd ([1]; 1 mg, bortezomib 1.0 mg m^−2 (n=5), day 11, read-out: Vss, mean (%CV)) was 151 L and the Vd ([1]; 1 mg, bortezomib 1.0 mg m^−2 (n=5), day 11, read-out: Vz, mean (%CV)) was 237 L. For the same molecule, the half-life ([1]; 1 mg, bortezomib 1.0 mg m^−2, day 1, patients with measurable plasma concentrations at 24 h post-dose (n=2), read-out: T½,z 24-h, mean (converted)) was 15.1 h, the half-life ([1]; 1 mg, bortezomib 1.0 mg m^−2, day 11, patients with measurable plasma concentrations at 24 h post-dose (n=4), read-out: T½,z 24-h, mean (converted)) was 14.3 h and the AUC(0-t) [1, 8] was 35.5 ng·h/mL. For the same molecule, the AUC(0-inf) [1, 8] was 49 ng·h/mL, the clearance [1, 8] was 850 mL/min and the half-life ([1]; 1.3 mg, bortezomib 1.3 mg m^−2 (n=3), day 1, with docetaxel, read-out: T½,z, mean (%CV) (converted)) was 14.2 h. It also gave a Vd ([1]; 1.3 mg, bortezomib 1.3 mg m^−2 (n=3), day 1, with docetaxel, read-out: Vss, mean (%CV)) of 596 L, a Vd ([1]; 1.3 mg, bortezomib 1.3 mg m^−2 (n=3), day 1, with docetaxel, read-out: Vz, mean (%CV)) of 924 L and an AUC(0-t) [1, 9] of 90.5 ng·h/mL. The AUC(0-inf) [1, 9] was 111 ng·h/mL, the clearance [1, 9] was 350 mL/min and the half-life ([1]; 1.3 mg, bortezomib 1.3 mg m^−2 (n=3), day 11, read-out: T½,z, mean (%CV) (converted)) was 12.2 h. It also gave a Vd ([1]; 1.3 mg, bortezomib 1.3 mg m^−2 (n=3), day 11, read-out: Vss, mean (%CV)) of 237 L, a Vd ([1]; 1.3 mg, bortezomib 1.3 mg m^−2 (n=3), day 11, read-out: Vz, mean (%CV)) of 374 L and a half-life ([1]; 1.3 mg, bortezomib 1.3 mg m^−2, day 1, patients with measurable plasma concentrations at 24 h post-dose (n=2), read-out: T½,z 24-h, mean (converted)) of 18.1 h. The half-life ([1]; 1.3 mg, bortezomib 1.3 mg m^−2, day 11, patients with measurable plasma concentrations at 24 h post-dose (n=2), read-out: T½,z 24-h, mean (converted)) was 17.1 h, the AUC(0-t) [1, 10] was 103 ng·h/mL and the AUC(0-inf) [1, 10] was 161 ng·h/mL. For the same molecule, the clearance [1, 10] was 267 mL/min, the half-life ([1]; 1.5 mg, bortezomib 1.5 mg m^−2 (n=6), day 11, read-out: T½,z, mean (%CV) (converted)) was 23.6 h and the Vd ([1]; 1.5 mg, bortezomib 1.5 mg m^−2 (n=6), day 11, read-out: Vss, mean (%CV)) was 391 L. The Vd ([1]; 1.5 mg, bortezomib 1.5 mg m^−2 (n=6), day 11, read-out: Vz, mean (%CV)) was 538 L, the AUC(0-t) [1, 11] was 69 ng·h/mL and the AUC(0-inf) [1, 11] was 85.3 ng·h/mL. The clearance [1, 11] was 615 mL/min, the half-life ([1]; 1.5 mg, bortezomib 1.5 mg m^−2 (n=8), day 1, with docetaxel, read-out: T½,z, mean (%CV) (converted)) was 6.9 h and the Vd ([1]; 1.5 mg, bortezomib 1.5 mg m^−2 (n=8), day 1, with docetaxel, read-out: Vss, mean (%CV)) was 209 L. The Vd ([1]; 1.5 mg, bortezomib 1.5 mg m^−2 (n=8), day 1, with docetaxel, read-out: Vz, mean (%CV)) was 282 L, the half-life ([1]; 1.5 mg, bortezomib 1.5 mg m^−2, day 1, patients with measurable plasma concentrations at 24 h post-dose (n=2), read-out: T½,z 24-h, mean (converted)) was 17.8 h and the half-life ([1]; 1.5 mg, bortezomib 1.5 mg m^−2, day 11, patients with measurable plasma concentrations at 24 h post-dose, read-out: T½,z 24-h, mean (converted)) was 23.6 h. The half-life ([1]; following the first dose, patients with measurable plasma concentrations at 24 h post-dose, read-out: Terminal half-lives, mean values across dose levels) was 15 to 18 h and the “Effect on the effect of trastuzumab” value [3] was “acts synergistically”.
